Tested on: N. gonorrhea
Assay: Microtiter plate enzyme immunoassay: optimization of coating antibody concentration with detergent in assay buffer
Parameters: species or system Neisseria gonorrhea
Method: Samples were treated 1.0N NaOH and neutralized with assay buffer as described in Example 1, above. For this assay, 0.100 mL aliquots of the treated, neutralized sample were transferred to the wells of a 96-well microtiter plate which had been previously incubated with an optimized concentration of anti-N. gonorrhea antibody diluted in phosphate buffered saline for 90-120 minutes, drained, then blocked with a solution containing 1.0% bovine serum albumin and 20% sucrose in phosphate buffered saline for 2 hours and dried in vacuo. The aliquots were permitted to incubate in the microtiter plate wells for 90 minutes at room temperature,then drained and washed with phosphate buffered saline containing 0.05% Tween® 20. Horseradish peroxidase conjugated anti-N. gonorrhea, 100 μL of an optimized concentration, was then added to each well and the plate again incubated for 1 hour at room temperature. The plate was then drained and washed as above. A 100 μL portion of the substrate/chromogen solution described in Example 1, above, was then added to each well and incubated for 10 minutes at room temperature. The absorbance of each well was then determined at 630 nm, and corrected for the absorbance at 490 nm.
Antibody specific for Neisseria gonorrhea was used to coat the wells of microtiter plates at varying concentrations in phosphate buffered saline, as described above. A comparison of the optimal antibody concentration in assays using Tween® 20 or Triton® X-100 was made by testing a single concentration of N. gonorrhea in wells previously coated, blocked, and dried as described above. The optimum concentration of antibody is identified as that which yields the maximum signal in the assay with a minimal background response. Table 4 lists the results of such experiments using Tween® 20 and Triton® X-100 as detergents in the assay buffer.

| Substance | % Maximum Signal (coating antibody 0.20 μg/well) [%] | % Maximum Signal (coating antibody 0.30 μg/well) [%] | % Maximum Signal (coating antibody 0.35 μg/well) [%] | % Maximum Signal (coating antibody 0.40 μg/well) [%] | % Maximum Signal (coating antibody 0.45 μg/well) [%] | % Maximum Signal (coating antibody 0.5 μg/well) [%] | % Maximum Signal (coating antibody 0.60 μg/well) [%] | % Maximum Signal (coating antibody 0.05 μg/well) [%] | % Maximum Signal (coating antibody 0.1 μg/well) [%] | % Maximum Signal (coating antibody 0.8 μg/well) [%] | % Maximum Signal (coating antibody 1.0 μg/well) [%] | % Maximum Signal (coating antibody 1.5 μg/well) [%] | % Maximum Signal (coating antibody 2.0 μg/well) [%] |
| --- | --- | --- | --- | --- | --- | --- | --- | --- | --- | --- | --- | --- | --- |
| polyoxyethylene-octylphenoxy [Triton ® X-100] | 100 | 98 | 70 | 69 | 66 | 58 | 57 | – | – | – | – | – | – |
| polyoxyethylene-sorbitan monolaurate [Tween ® 20] | – | – | – | – | – | 100 | – | 16 | 35 | 98 | 90 | 77 | 66 |

Source: patent US4810630A, “Use of polyoxyethylene ethers to improve the performance of immunoassays employing peroxidase conjugates” (priority 1987, dated 1989)
